“Also recorded” adds a separate entry of the source.
Experiments:
[1] = test system: HeLa cells; assay: Confocal microscopy of LNPs with FRET-labeled siRNA probes; assay type: cell-based; conditions: 50 ng FRET-labeled probes, one hour
Protocol: HeLa cells were seeded at 1.5×10^4 cells per well in black (clear bottom) 96-well plates (Greiner Bio-one) and incubated for 24 hours prior to transfection. The cells were then transfected with the inventive LNPs containing 50 ng of FRET-labeled probes for one hour. The cells were washed, fixed, and counterstained in PBS containing Hoechst (2 μg/mL) for nuclei identification. The cells were then imaged using an automated spinning disk confocal microscope (OPERA, Perkin Elmer) with a 40× objective. The exposure rates were maintained constant for individual fluorophores across the 96-well plate. The images were acquired from the Acapella software with a 20 μm scale bar.

[2] = test system: Human red blood cells (RBCs); assay: Hemolysis assay; assay type: cell-based; conditions: endosomal pH 5.5, 37 C, one hour
Protocol: Human red blood cells (RBCs, Innovative Research) were washed twice with 1×PBS and diluted in either 1×PBS or citrate buffer saline at pH 5.5 (CBS, 20 mM citrate buffer, 130 mM NaCl) to a 4% v/v RBC solution. In a v-bottom, 96-well plate, 100 μL of blank LNPs formulated at an equivalent concentration of 23.75 ng siRNA/μL (no siRNA was used) were added to 100 μL of the 4% v/v RBC solution in either PBS or CBS and heated to 37° C. for one hour. After cooling, the plate was centrifuged at 4° C. at 1000×g for 5 minutes. 100 μL of the supernatant was transferred into a clear 96-well assay plate and the UV absorption was read 540 nm. Positive and negative control experiments were carried out with 0.1% Triton-X (100%) and buffer alone, respectively.

[3] = test system: HeLa cells stably modified to constitutively express both firefly and Renilla luciferases; assay: In vitro transfection: firefly luciferase silencing by LNP-siRNA (Dual-Glo); assay type: cell-based; conditions: LNPs with anti-firefly luciferase siRNA, serum containing media, 24 hours
Protocol: Lipid nanoparticles were formulated by mixing an equal volume of an ethanolic solution of a lipid of the invention (e.g., a compound of the invention) and an […] at pH 3 to give a 5:1 synthesized lipid:siRNA ratio. The resulting solution was then diluted in an equal volume of 1× phosphate-buffered saline (PBS). The ethanolic lipid solution contained a mixture of synthesized lipids, cholesterol (Sigma Aldrich), 1,2-distearoyl-sn-glycero-3-phosphocholine (DSPC, Avanti Polar Lipids, Alabaster, Ala.) and mPEG2000-DMG (MW 2660, Alnylam Pharmaceuticals, Cambridge, Mass.) at a molar ratio of 50:38.5:10:1.5 in 200-proof ethanol. For all studies, the ethanolic lipid and siRNA solutions were hand mixed via pipette. The LNPs for in vivo use were also dialyzed for 75 minutes against 1×PBS in 3500 MW cut-off (MWCO) cassettes (Pierce/Thermo Scientific, Rockford, Ill.) prior to use.
In vitro transfection was performed on HeLa cells stably modified to constitutively express both firefly and Renilla luciferases. Cells were maintained at 37° C. in a 5% CO2 atmosphere in high glucose Dulbelco modified Eagles medium without phenol red (Invitrogen, Carlsbad, Calif.) supplemented with 10% fetal bovine serum (FBS, Invitrogen). Prior to transfection, 15,000 cells were seeded in white 96-well plates and allowed to attach overnight. On the day of transfection, the media was replaced with 90 μL of fresh media. LNPs were formulated at a concentration of 10 ng/μL and diluted with 1×PBS to obtain the desired concentration. For example, to achieve a transfection of 25 ng of siRNA per well, the 10 ng/μL stock was diluted 1:4 to give 2.5 ng/μL, and 10 μL of this solution was added to the cells in 90 μL of media. Lipofectamine (RNAiMAX) was used according to the manufacturer's instructions as a positive control. Relative firefly luciferase silencing was assessed approximately 24 hours after LNP addition using a Dual-Glo luciferase assay kit (Promega, Madison, Wis.). The firefly luciferase values were normalized to the Renilla luciferase values in order to correct for potential toxicity and/or off-target effects. All experiments were carried out in sextuplicates.

[4] = test system: HeLa cells; assay: Intracellular FRET with FRET-labeled siRNA probes (flow cytometry); assay type: cell-based; conditions: early time point after transfection
Protocol: (§1) Extracellular/Intracellular Fluorescence Resonance Energy Transfer (FRET) Assays and Cellular Uptake
(§2) LNPs containing an equimolar mixture of siRNAs labeled with Alexa Fluor® 594 and Alexa Fluor® 647 were diluted to 10 ng siRNA/μL with 1×PBS and added to a black 96-well plate pre-plated with 20,000 HeLa cells at 37° C. Control wells contained LNPs with 1% Triton-X. To measure the FRET, the samples were excited at 540 nm, and the fluorescence intensity was read at 690 and 620 nm using a Tecan Safire 2 Microplate reader at 37° C. FRET was determined as the ratio of the fluorescence intensities at 690/620 nm. FRET signals for all LNPs were normalized to that of the control wells. For extracellular FRET experiments, an identical experiment was carried out without cells, and the FRET data obtained were similar. […] The trypsined cells were then neutralized with 120 μL of quenching media (25% cell culture media in 1×PBS) and transferred to a 96-well v-bottom plate and analyzed via flow cytometry. For each sample, 10,000 events were monitored and evaluated by a BD LSR II HTS flow cytometer (BD Bioscience). […] For cell uptake studies, LNPs formulated with just Alexa Fluor® 647 were analyzed using settings for the Alexa Fluor® 647 channel: exciation via a 633 nm (red, HeNe) laser and emission via a 660/20 nm filter.

[5] = 6-p-toluidinyl-naphthalene-2-sulfonate (TNS) assay, apparent pKa of the LNPs; assay type: physicochemical; conditions: TNS fluorescence titration pH 2.5 to 8.5, fully formulated LNP
Protocol: 6-p-toluidinyl-naphthalene-2-sulfonate (TNS) Assay
A series of buffers with pH ranging between 2.5 and 8.5 were prepared by adjusting the pH of a solution containing 10 mM citrate, 10 mM phosphate, 10 mM borate, and 150 mM NaCl with 1N HCl. 90 μL of each buffer solution was added to a 96-well plate. A 300 μM stock solution of TNS was prepared in DMSO and 2 μL of this solution was added to the buffer solutions in the 96 well plate. After formulation, 10 μL of an LNP solution (prepared without siRNA) was added to the above mixture such that the synthesized lipid concentration (not co-lipids) in the final mixture was […]. The fluorescence of the resulting solution was obtained on a Tecan Safire 2 Microplate reader using an excitation wavelength of 325 nm and an emission wavelength of 435 nm. The fluorescence signal was plotted against pH and fitted using a three-parameter logistic equation (GraphPad Prism v.5.0a, GraphPad Software, San Diego Calif. USA). The pH value at which half of the maximum fluorescence is reached was reported as the apparent pKa of the LNPs.

[6] = test system: HeLa cells; assay: Cellular uptake of LNPs with Alexa Fluor 647 siRNA (flow cytometry); assay type: cell-based; conditions: two hours incubation, serum containing media
Protocol: as §1, §2

[7] = Dynamic light scattering, particle size; assay type: physicochemical
Protocol: After formulation, the LNPs-siRNA were diluted with 1×PBS to a final siRNA concentration of 2 μg/mL. The average particle size was measured via dynamic light scattering on a Malvern Zetasizer Nano ZS (Malvern Instruments, Worcestershire, UK). All experiments were carried out in triplicates.

SMILES	LNP pKa [5]	in vitro gene silencing (firefly luciferase, Luc/Ren) [3]	other results
CCCCCCCCCCSCC(COC(=O)CCN(CCCN(CC)CC)CCC(=O)OCC(CSCCCCCCCCCC)SCCCCCCCCCC)SCCCCCCCCCC (centres unmarked) [I-2]	–	–	intracellular location of LNPs [1]: located near the cell membrane and inside endocytic vesicles; also recorded: reside in the endocytic vesicles; LNP-mediated hemolysis of RBCs at pH 5.5 [2]: hemolytic
CCCCCCCCCCSCC(COC(=O)CCN(CCC(=O)OCC(CSCCCCCCCCCC)SCCCCCCCCCC)CCN(C)C)SCCCCCCCCCC (centres unmarked) [I-3]	–	–	intracellular location of LNPs [1]: located near the cell membrane and inside endocytic vesicles; also recorded: reside in the endocytic vesicles; LNP-mediated hemolysis of RBCs at pH 5.5 [2]: hemolytic
CCCCCCCCCCSCC(COC(=O)CCN(CCC(=O)OCC(CSCCCCCCCCCC)SCCCCCCCCCC)CCN(C(C)C)C(C)C)SCCCCCCCCCC (centres unmarked) [I-4]	low pKa values	poor gene silencing; also recorded: limited gene silencing performance	in vitro gene silencing (firefly luciferase, Luc/Ren) ([3]; listed as 4): low gene silencing; intracellular FRET signal (uptake of intact LNPs) [4]: did not give an intracellular FRET signal; cellular uptake [6]: relatively high uptake
CCCCCCCCCCSCC(COC(=O)CCN(CCCN(CCCC)CCCC)CCC(=O)OCC(CSCCCCCCCCCC)SCCCCCCCCCC)SCCCCCCCCCC (centres unmarked) [I-6]	low pKa values	poor gene silencing	in vitro gene silencing (firefly luciferase, Luc/Ren) ([3]; listed as 6): low gene silencing
CCCCCCCCCCSCC(COC(=O)CCN(CCC(=O)OCC(CSCCCCCCCCCC)SCCCCCCCCCC)CCC1CCCC1)SCCCCCCCCCC (centres unmarked) [I-18]	–	poor gene silencing; also recorded: unable to silence the target gene	particle size / nanoparticle formation [7]: able to form nanoparticles
CCCCCCCCCCSCC(COC(=O)CCN(CCCn1ccnc1)CCC(=O)OCC(CSCCCCCCCCCC)SCCCCCCCCCC)SCCCCCCCCCC (centres unmarked) [I-20]	low LNP pKa values	poor gene silencing	–
CCCCCCCCCCSCC(COC(=O)CCN(CCC(=O)OCC(CSCCCCCCCCCC)SCCCCCCCCCC)C1CCN(Cc2ccccc2)C1)SCCCCCCCCCC (centres unmarked) [I-30]	low LNP pKa values	poor gene silencing	–

More lines, main results first:

LNP pKa [5]	SMILES	in vitro gene silencing (firefly luciferase, Luc/Ren) [3]	other results
low LNP pKa values	CCCCCCCCCCSCC(COC(=O)CCN(CCC(=O)OCC(CSCCCCCCCCCC)SCCCCCCCCCC)CCc1ccccn1)SCCCCCCCCCC (centres unmarked) [I-13]	poor gene silencing	–
low pKa values	CCCCCCCCCCSCC(COC(=O)CCN(CCCN1CCCN(C)CC1)CCC(=O)OCC(CSCCCCCCCCCC)SCCCCCCCCCC)SCCCCCCCCCC (centres unmarked) [I-21]	poor gene silencing	in vitro gene silencing (firefly luciferase, Luc/Ren) ([3]; listed as 21): low gene silencing
low LNP pKa values	CCCCCCCCCCSCC(COC(=O)CCN(CCC(=O)OCC(CSCCCCCCCCCC)SCCCCCCCCCC)CCN1CCS(=O)(=O)CC1)SCCCCCCCCCC (centres unmarked) [I-28]	limited gene silencing performance	intracellular FRET signal (uptake of intact LNPs) [4]: did not give an intracellular FRET signal; cellular uptake [6]: relatively high uptake
low LNP pKa values	CCCCCCCCCCSCC(COC(=O)CCN(CCC(=O)OCC(CSCCCCCCCCCC)SCCCCCCCCCC)C1CCN(Cc2ccccc2)CC1)SCCCCCCCCCC (centres unmarked) [I-29]	poor gene silencing	–

Source: US9895443B2, “Multi-tailed lipids and uses thereof” (Massachusetts Institute of Technology, priority 2013, dated 2018)
